Experimental data as given in the NIST ThermoML archive (doi:10.1021/je100832h).
± gives the expanded uncertainty stated by the source.

Legend:
[1] = xn = mol fraction of the nth substance listed; conditions: 101.32 kPa, Liquid, Vibrating tube method
[2] = excess molar enthalpy (molar enthalpy of mixing); xn = mol fraction of the nth substance listed; conditions: 291.15 K, 101 kPa, Liquid, Calvet calorimetry
[3] = Liquid; for mass density: 101.32 kPa, Vibrating tube method; for vapor or sublimation pressure: Ebulliometric method (Recirculating still)

CCCCCC [hexane] + CCOC(C)=O
[1], x2 = 0
Conditions | mass density [kg/m3]
291.15 K | 661.17 ± 0.52
298.15 K | 654.9 ± 0.51
318.15 K | 636.5 ± 0.5
328.15 K | 627 ± 0.5

CCCCC [pentane] + CCOC(C)=O
mass density [kg/m3], [1]
Conditions | 291.15 K | 298.15 K
x2 = 0 | 628.22 ± 0.5 | 621.35 ± 0.49
x2 = 0.0126 | 630.77 ± 0.99 | –
x2 = 0.026 | – | 626.34 ± 0.95
x2 = 0.0577 | 640.44 ± 1 | –
x2 = 0.0607 | – | 633.6 ± 0.99
x2 = 0.0897 | – | 639.94 ± 1
x2 = 0.0922 | 648.09 ± 1.1 | –
x2 = 0.1609 | – | 655.94 ± 1.1
x2 = 0.1813 | 668.69 ± 1.1 | –
x2 = 0.2315 | – | 672.51 ± 1.1
x2 = 0.2507 | 685.25 ± 1.1 | –
x2 = 0.3028 | – | 690.12 ± 1.1
x2 = 0.3232 | 703.25 ± 1.1 | –
x2 = 0.3576 | – | 703.99 ± 1.2
x2 = 0.3916 | 721.01 ± 1.2 | –
x2 = 0.4301 | – | 722.92 ± 1.2
x2 = 0.4566 | 738.23 ± 1.2 | –
x2 = 0.4703 | – | 733.71 ± 1.2
x2 = 0.5276 | – | 749.44 ± 1.3
x2 = 0.5296 | 758.09 ± 1.2 | –
x2 = 0.5916 | 775.48 ± 1.3 | –
x2 = 0.6517 | 792.81 ± 1.3 | –
x2 = 0.6553 | – | 785.76 ± 1.3
x2 = 0.7126 | – | 802.69 ± 1.4
x2 = 0.7164 | 812.13 ± 1.4 | –
x2 = 0.7725 | – | 820.79 ± 1.4
x2 = 0.7788 | 831.21 ± 1.4 | –
x2 = 0.8245 | – | 836.93 ± 1.4
x2 = 0.8582 | 856.32 ± 1.4 | –
x2 = 0.8825 | – | 855.3 ± 1.5
x2 = 0.8961 | 868.57 ± 1.5 | –
x2 = 0.9342 | – | 872.31 ± 1.5
x2 = 0.9693 | 892.55 ± 1.5 | –
x2 = 0.9896 | – | 890.79 ± 1.6

[2]
Conditions | excess molar enthalpy [kcal/mol]
x2 = 0.0628 | 0.0777 ± 0.00167
x2 = 0.1353 | 0.139 ± 0.00311
x2 = 0.2024 | 0.194 ± 0.0043
x2 = 0.2623 | 0.232 ± 0.00502
x2 = 0.3345 | 0.274 ± 0.00598
x2 = 0.4047 | 0.295 ± 0.00621
x2 = 0.4549 | 0.305 ± 0.00645
x2 = 0.514 | 0.307 ± 0.00645
x2 = 0.5664 | 0.3 ± 0.00645
x2 = 0.6434 | 0.283 ± 0.00598
x2 = 0.7049 | 0.256 ± 0.0055
x2 = 0.7712 | 0.221 ± 0.00478
x2 = 0.8427 | 0.175 ± 0.00382
x2 = 0.9116 | 0.118 ± 0.00263
x2 = 0.9483 | 0.065 ± 0.00167

CCOC(C)=O [ethyl acetate] + CCCCCCCCC
[1], x1 = 1
Conditions | mass density [kg/m3]
291.15 K | 902.88 ± 0.73
298.15 K | 894.4 ± 0.72
318.15 K | 869.6 ± 0.69
328.15 K | 857.17 ± 0.68

CCOC(C)=O [ethyl acetate] + CCCCCCCCCC
[1], x1 = 1
Conditions | mass density [kg/m3]
291.15 K | 902.88 ± 0.73
298.15 K | 894.4 ± 0.72
318.15 K | 869.6 ± 0.69
328.15 K | 857.17 ± 0.68

CCOC(C)=O [ethyl acetate] + CCCCC
[1], x1 = 1
Conditions | mass density [kg/m3]
291.15 K | 902.88 ± 0.73
298.15 K | 894.4 ± 0.72

CCCCCCC [heptane] + CCOC(C)=O
[1], x2 = 0
Conditions | mass density [kg/m3]
291.15 K | 685.28 ± 0.32
298.15 K | 679.48 ± 0.32
318.15 K | 662.06 ± 0.33
328.15 K | 653.6 ± 0.33

CCCCCCCCCC [decane]
[3]
Conditions | mass density [kg/m3] | vapor or sublimation pressure [kPa]
291.15 K | 731.22 ± 0.57 | –
298.15 K | 726.2 ± 0.56 | –
318.15 K | 710.9 ± 0.55 | –
328.15 K | 703.34 ± 0.55 | –
386.86 K | – | 15.86 ± 0.06
390.21 K | – | 17.94 ± 0.06
393.85 K | – | 20.43 ± 0.06
397.62 K | – | 23.28 ± 0.07
400.9 K | – | 26.08 ± 0.08
403.65 K | – | 28.54 ± 0.08
406.2 K | – | 31.1 ± 0.09
408.52 K | – | 33.59 ± 0.09
411.2 K | – | 36.58 ± 0.1
413.6 K | – | 39.44 ± 0.1
414.92 K | – | 41.05 ± 0.11
416.83 K | – | 43.54 ± 0.11
419.01 K | – | 46.44 ± 0.12
420.74 K | – | 48.95 ± 0.12
422.51 K | – | 51.55 ± 0.13
424.11 K | – | 54.05 ± 0.13
425.85 K | – | 56.84 ± 0.14
427.5 K | – | 59.6 ± 0.14
429.13 K | – | 62.41 ± 0.15
430.69 K | – | 65.23 ± 0.16
432.29 K | – | 68.16 ± 0.16
433.61 K | – | 70.76 ± 0.17
435.15 K | – | 73.71 ± 0.17
436.57 K | – | 76.61 ± 0.18
437.52 K | – | 78.69 ± 0.18
438.92 K | – | 81.7 ± 0.19
440.19 K | – | 84.46 ± 0.2
441.29 K | – | 86.98 ± 0.2
442.23 K | – | 89.2 ± 0.21
443.35 K | – | 91.83 ± 0.21
444.37 K | – | 94.3 ± 0.21
444.8 K | – | 95.2 ± 0.22
446.16 K | – | 98.41 ± 0.22
446.55 K | – | 99.37 ± 0.23
446.97 K | – | 100.62 ± 0.23
447.3 K | – | 101.32 ± 0.23
448.21 K | – | 103.75 ± 0.24
449.29 K | – | 106.58 ± 0.24
450.33 K | – | 109.39 ± 0.25
451.31 K | – | 112.15 ± 0.25
452.1 K | – | 114.36 ± 0.26
452.89 K | – | 116.67 ± 0.26
453.87 K | – | 119.46 ± 0.27
454.7 K | – | 121.94 ± 0.28
455.13 K | – | 123.25 ± 0.28
455.92 K | – | 125.63 ± 0.28
456.82 K | – | 128.4 ± 0.29
457.59 K | – | 130.81 ± 0.29
458.4 K | – | 133.37 ± 0.3
459.16 K | – | 135.82 ± 0.3
460.02 K | – | 138.64 ± 0.31
460.42 K | – | 140 ± 0.31
461.26 K | – | 142.82 ± 0.32
462.1 K | – | 145.65 ± 0.32
463.1 K | – | 148.84 ± 0.33
463.75 K | – | 151.4 ± 0.34
464.39 K | – | 153.69 ± 0.34
465.12 K | – | 156.4 ± 0.35
465.77 K | – | 158.65 ± 0.35
466.55 K | – | 161.57 ± 0.36
467.33 K | – | 164.47 ± 0.36
468.04 K | – | 167.22 ± 0.37
468.81 K | – | 170.16 ± 0.38
469.38 K | – | 172.45 ± 0.38
470.03 K | – | 175.03 ± 0.39
470.6 K | – | 177.34 ± 0.39
471.2 K | – | 179.77 ± 0.4
471.77 K | – | 182.08 ± 0.4
472.23 K | – | 184.14 ± 0.41
472.78 K | – | 186.39 ± 0.41
473.35 K | – | 188.8 ± 0.41
474.12 K | – | 191.58 ± 0.42
474.81 K | – | 194.61 ± 0.43
475.37 K | – | 197.04 ± 0.43

CCOC(C)=O [ethyl acetate] + CCCCCCCC
[1], x1 = 1
Conditions | mass density [kg/m3]
291.15 K | 902.88 ± 0.73
298.15 K | 894.4 ± 0.72
318.15 K | 869.6 ± 0.69
328.15 K | 857.17 ± 0.68

CCCCCCCC [octane]
[3]
Conditions | mass density [kg/m3] | vapor or sublimation pressure [kPa]
291.15 K | 704.13 ± 0.55 | –
298.15 K | 698.6 ± 0.54 | –
318.15 K | 682.16 ± 0.53 | –
328.15 K | 674.15 ± 0.53 | –
350.64 K | – | 21.09 ± 0.07
353.05 K | – | 23.14 ± 0.07
355.76 K | – | 25.56 ± 0.08
356.97 K | – | 26.7 ± 0.08
358.82 K | – | 28.55 ± 0.08
361.59 K | – | 31.58 ± 0.09
363.86 K | – | 34.16 ± 0.09
365.82 K | – | 36.53 ± 0.1
367.65 K | – | 38.88 ± 0.1
369.09 K | – | 40.82 ± 0.11
370.77 K | – | 43.19 ± 0.11
372.39 K | – | 45.57 ± 0.12
374.01 K | – | 48.04 ± 0.12
375.61 K | – | 50.59 ± 0.13
377 K | – | 52.9 ± 0.13
378.25 K | – | 55.02 ± 0.14
380.03 K | – | 58.2 ± 0.14
381.34 K | – | 60.63 ± 0.15
382.42 K | – | 62.68 ± 0.15
383.64 K | – | 65.07 ± 0.16
384.76 K | – | 67.34 ± 0.16
386.29 K | – | 70.52 ± 0.17
387.45 K | – | 73.02 ± 0.18
388.55 K | – | 75.43 ± 0.18
389.65 K | – | 77.94 ± 0.19
390.56 K | – | 80.05 ± 0.19
391.6 K | – | 82.51 ± 0.2
392.6 K | – | 84.94 ± 0.2
393.47 K | – | 87.09 ± 0.21
394.37 K | – | 89.39 ± 0.21
395.14 K | – | 91.38 ± 0.21
396.04 K | – | 93.64 ± 0.22
396.95 K | – | 96.14 ± 0.23
397.9 K | – | 98.73 ± 0.23
398.19 K | – | 99.59 ± 0.23
398.59 K | – | 100.68 ± 0.23
398.83 K | – | 101.32 ± 0.24
399.61 K | – | 103.61 ± 0.24
400.53 K | – | 106.23 ± 0.25
401.23 K | – | 108.3 ± 0.25
402.03 K | – | 110.71 ± 0.26
402.81 K | – | 113.09 ± 0.26
403.32 K | – | 114.65 ± 0.26
403.81 K | – | 116.17 ± 0.27
404.1 K | – | 117.1 ± 0.27
404.79 K | – | 119.25 ± 0.27
405.51 K | – | 121.6 ± 0.28
406.27 K | – | 124.1 ± 0.28
407.03 K | – | 126.61 ± 0.29
407.89 K | – | 129.5 ± 0.3
408.75 K | – | 132.46 ± 0.3
409.62 K | – | 135.53 ± 0.31
410.15 K | – | 137.42 ± 0.31
410.83 K | – | 139.87 ± 0.32
422.1 K | – | 185.56 ± 0.42
422.64 K | – | 188.02 ± 0.42
423.26 K | – | 190.85 ± 0.43
423.76 K | – | 193.15 ± 0.43
424.15 K | – | 195.02 ± 0.44
424.76 K | – | 197.87 ± 0.44
425.2 K | – | 199.97 ± 0.45
